Reference: US20120252741A1, “NOVEL SEMI-SYNTHETIC GLYCOPEPTIDES AS ANTIBACTERIAL AGENTS” (priority 2008, published 2012)
≈ marks a conversion by molar mass, not a printed value. Where two headings read alike, the source gives them in different places.

Key:
Format in all cases: cell-based
[1] = system: Enterococcus faecium 752 (VRE, Van A); assay: MIC, broth microdilution, EFcm 752; conditions: VRE, Van A, class symbols, read-out: MIC E FCM 752
Description: (§1) Antibacterial activity in vitro is investigated by broth microdilution method in Meuller-Hinton broth as recommended by NCCLS. All strains tested are clinical isolates either sensitive or resistant to natural glycopeptides. MIC values were determined using the CLSI-recommended broth microdilution procedure (Clinical and Laboratory Standards Institute, Methods for Dilution Antimicrobial Susceptibility Tests for Bacteria That Grow Aerobically; Approved Standard-Seventh Edition.). Automated liquid handlers (Multidrop 384, Labsystems, Helsinki, Finland; Biomek 2000 and Multimek 96, Beckman Coulter, Fullerton Calif.) were used to conduct serial dilutions and liquid transfers. The MIC value for vancomycin is given for comparison. The abbreviations for organisms tested are as follow: SA 100—Staphylococcus aureus 100 (ATCC 29213); SA 757—Staphylococcus aureus 757 (MRSA); SA 2012—Staphylococcus aureus 2012 (VISA); SE 835—Staphylococcus epidermidis 835; SE 831—Staphylococcus epidermidis 831 (MRSE); EFc 101—Enterococcus faecalis 101 (ATCC 29212); EFc 848—Enterococcus faecalis 848 (VRE, Van A); EFcm 800—Enterococcus faecium 800; EFcm 752—Enterococcus faecium 752 (VRE, Van A); SPNE 1195—Streptococcus pneumoniae 1195 (ATCC 49619); SPY 712—Streptococcus pyogenes 712.

[2] = system: Enterococcus faecalis 101 (ATCC 29212); assay: MIC, broth microdilution, EFc 101; conditions: Enterococcus faecalis, ATCC29212, class symbols, read-out: MIC E FC 101
Description: as §1

Enterococcus faecium 800 = assay: MIC, broth microdilution, EFcm 800; conditions: Enterococcus faecium, 800, class symbols, read-out: MIC E FCM 800
Description: as §1

[3] = system: Streptococcus pyogenes 712; assay: MIC, broth microdilution, SPY 712; conditions: Streptococcus pyogenes, 712, class symbols, read-out: MIC S PYO 712
Description: as §1

[4] = system: Staphylococcus epidermidis 835; assay: MIC, broth microdilution, SE 835; conditions: Staphylococcus epidermidis, 835, class symbols, read-out: MIC SE 835
Description: as §1

[5] = system: Staphylococcus aureus 100 (ATCC 29213); assay: MIC, broth microdilution, SA 100; conditions: Staphylococcus aureus, ATCC29213, class symbols, read-out: MIC SA 100
Description: as §1

[6] = system: Staphylococcus epidermidis 831 (MRSE); assay: MIC, broth microdilution, SE 831; conditions: Staphylococcus epidermidis, read-out: MIC SE 831
Description: as §1

[7] = system: Staphylococcus aureus 2012 (VISA); assay: MIC, broth microdilution, SA 2012; conditions: read-out: MIC SA 2012
Description: as §1

[8] = system: Enterococcus faecalis 848 (VRE, Van A); assay: MIC, broth microdilution, EFc 848; conditions: VRE, Van A, class symbols, read-out: MIC E FC 848
Description: as §1

[9] = system: Streptococcus pneumoniae 1195 (ATCC 49619); assay: MIC, broth microdilution, SPNE 1195; conditions: Streptococcus pneumoniae, ATCC49619, class symbols, read-out: MIC S PNE 1195
Description: as §1

[10] = system: Staphylococcus aureus 757 (MRSA); assay: MIC, broth microdilution, SA 757; conditions: read-out: MIC SA 757
Description: as §1

[11] = Table 2, in the presence of 0.002% Polysorbate 80
[12] = Table 2, in the presence of 0.002% Polysorbate 80, class symbols

CCCCOCC(=O)NC(=O)C[C@@H]1NC(=O)[C@H](NC(=O)[C@@H](CC(C)C)NC)[C@H](O)c2ccc(c(Cl)c2)Oc2cc3cc(c2O[C@@H]2O[C@H](CO)[C@@H](O)[C@H](O)[C@H]2O[C@H]2C[C@](C)(N)[C@H](O)[C@H](C)O2)Oc2ccc(cc2Cl)[C@@H](O)[C@@H]2NC(=O)[C@H](NC(=O)[C@@H]3NC1=O)c1ccc(O)c(c1)-c1c(O)cc(O)cc1[C@@H](C(=O)NC1C3CC4CC(C3)CC1C4)NC2=O (some centres unmarked) [Compound 44]
MIC ([1]; Table 1): > 16 µg/mL | MIC ([2]; Table 1): 0.5 to 1 µg/mL (≈ 0.295 to 0.589 µM) | MIC (Enterococcus faecium 800; Table 1): 0.01 to 0.5 µg/mL (≈ 0.00589 to 0.295 µM) | MIC ([3]; Table 1): 0.01 to 0.5 µg/mL (≈ 0.00589 to 0.295 µM) | MIC ([4]; Table 1): 0.01 to 0.5 µg/mL (≈ 0.00589 to 0.295 µM) | MIC ([5]; Table 1): 0.5 to 1 µg/mL (≈ 0.295 to 0.589 µM) | MIC ([6]; Table 1, class symbols): 0.01 to 0.5 µg/mL (≈ 0.00589 to 0.295 µM) | MIC ([7]; Table 1, class symbols): 2 to 4 µg/mL (≈ 1.18 to 2.36 µM) | MIC ([8]; Table 1): > 16 µg/mL | MIC ([9]; Table 1): 0.01 to 0.5 µg/mL (≈ 0.00589 to 0.295 µM) | MIC ([10]; Table 1, class symbols): 0.5 to 1 µg/mL (≈ 0.295 to 0.589 µM)

CNCCOCc1cc(OCCNC)cc(C(=O)NC(=O)C[C@@H]2NC(=O)[C@H](NC(=O)[C@@H](CC(C)C)NC)[C@H](O)c3ccc(c(Cl)c3)Oc3cc4cc(c3O[C@@H]3O[C@H](CO)[C@@H](O)[C@H](O)[C@H]3O[C@H]3C[C@](C)(N)[C@H](O)[C@H](C)O3)Oc3ccc(cc3Cl)[C@@H](O)[C@@H]3NC(=O)[C@H](NC(=O)[C@@H]4NC2=O)c2ccc(O)c(c2)-c2c(O)cc(O)cc2[C@@H](C(=O)NC2C4CC5CC(C4)CC2C5)NC3=O)c1 (some centres unmarked) [Compound 153]
MIC [1, 11]: > 16 µg/mL | MIC [2, 11]: 0.01 to 0.5 µg/mL | MIC (Enterococcus faecium 800; [11]): 0.01 to 0.5 µg/mL | MIC [3, 11]: 0.01 to 0.5 µg/mL | MIC [4, 11]: 0.01 to 0.5 µg/mL | MIC [5, 11]: 0.01 to 0.5 µg/mL | MIC [6, 12]: 0.01 to 0.5 µg/mL | MIC [7, 12]: 0.5 to 1 µg/mL | MIC [8, 11]: > 16 µg/mL | MIC [9, 11]: 0.01 to 0.5 µg/mL | MIC [10, 12]: 0.01 to 0.5 µg/mL

CN[C@H](CC(C)C)C(=O)N[C@H]1C(=O)N[C@@H](CC(=O)NS(=O)(=O)c2ccc(OCCOC)cc2)C(=O)N[C@H]2C(=O)N[C@H]3C(=O)N[C@H](C(=O)N[C@H](C(=O)NC4C5CC6CC(C5)CC4C6)c4cc(O)cc(O)c4-c4cc3ccc4O)[C@H](O)c3ccc(c(Cl)c3)Oc3cc2cc(c3O[C@@H]2O[C@H](CN)[C@@H](O)[C@H](O)[C@H]2O)Oc2ccc(cc2Cl)[C@H]1O (some centres unmarked) [Compound 101]
MIC ([1]; Table 1): 0.01 to 0.5 µg/mL (≈ 0.00605 to 0.303 µM) | MIC ([2]; Table 1): 0.01 to 0.5 µg/mL (≈ 0.00605 to 0.303 µM) | MIC (Enterococcus faecium 800; Table 1): 0.01 to 0.5 µg/mL (≈ 0.00605 to 0.303 µM) | MIC ([3]; Table 1): 0.01 to 0.5 µg/mL (≈ 0.00605 to 0.303 µM) | MIC ([4]; Table 1): 0.01 to 0.5 µg/mL (≈ 0.00605 to 0.303 µM) | MIC ([5]; Table 1): 0.01 to 0.5 µg/mL (≈ 0.00605 to 0.303 µM) | MIC ([6]; Table 1, class symbols): 0.01 to 0.5 µg/mL (≈ 0.00605 to 0.303 µM) | MIC ([7]; Table 1, class symbols): 0.01 to 0.5 µg/mL (≈ 0.00605 to 0.303 µM) | MIC ([8]; Table 1): 1 to 2 µg/mL (≈ 0.605 to 1.21 µM) | MIC ([9]; Table 1): 0.01 to 0.5 µg/mL (≈ 0.00605 to 0.303 µM) | MIC ([10]; Table 1, class symbols): 0.01 to 0.5 µg/mL (≈ 0.00605 to 0.303 µM)

CN[C@H](CC(C)C)C(=O)N[C@H]1C(=O)N[C@@H](CC(=O)NC(=O)c2ccc(OCCOC)cc2)C(=O)N[C@H]2C(=O)N[C@H]3C(=O)N[C@H](C(=O)N[C@H](C(=O)NC4C5CC6CC(C5)CC4C6)c4cc(O)cc(O)c4-c4cc3ccc4O)[C@H](O)c3ccc(c(Cl)c3)Oc3cc2cc(c3O[C@@H]2O[C@H](CO)[C@@H](O)[C@H](O)[C@H]2O[C@H]2C[C@](C)(N)[C@H](O)[C@H](C)O2)Oc2ccc(cc2Cl)[C@H]1O (some centres unmarked) [Compound 65]
MIC [1, 11]: 1 to 2 µg/mL | MIC [2, 11]: 0.01 to 0.5 µg/mL | MIC (Enterococcus faecium 800; [11]): 0.01 to 0.5 µg/mL | MIC [3, 11]: 0.01 to 0.5 µg/mL | MIC [4, 11]: 0.5 to 1 µg/mL | MIC [5, 11]: 0.5 to 1 µg/mL | MIC [6, 12]: 0.01 to 0.5 µg/mL | MIC [7, 12]: 2 to 4 µg/mL | MIC [8, 11]: 4 to 8 µg/mL | MIC [9, 11]: 0.01 to 0.5 µg/mL | MIC [10, 12]: 0.01 to 0.5 µg/mL
